Assay results from patent US20210403864A1, “METHODS AND COMPOSITIONS FOR TREATING ACTIVATED G-ALPHA Q MUTANT CANCERS OR MELANOCYTIC MALIGNANCIES” (Memorial Sloan Kettering Cancer Center, priority 2018, published 2021).

Tests used:
[1] = tested on: CYSLTR2^L129Q-expressing melan-a cells; assay: TPA-independent cell growth, CellTiter-glo 2.0; assay type: cell-based, mouse; details: 5 days
Protocol: (§1) Data are expressed as the percentage relative light units (RLU) relative to that observed with vehicle. Error bars, s.e.m. from triplicate samples.
(§2) Data are expressed as the percentage RLU relative to that observed with vehicle. Error bars, s.e.m. from triplicate samples.
(§3) Cell Culture and in vitro analysis. Mutation dependent melan-a cells were generated by transducing cells with cDNAs in MSCV-PURO (retrovirus) and then selecting cells with puromycin (1 μg/ml) for two days. TPA (Sigma-Aldrich, St. Louis, Mo.) was then withdrawn from cultures. Cells with activating mutations (CYSLTR2^L129Q, GNAQ^G48V/R183Q/Q209L, KRAS^G12V, and BRAF^V600E) continued to proliferate over several passages (>2 weeks) and were then validated with qRT-PCR and immunoblots. Vector and WT controls were unable to maintain proliferation after a couple passages upon TPA withdrawal. All cells were cultured in media containing 10% FBS, L-glutamine ([…]), penicillin (100 U/ml), streptomycin (100 μg/ml). Melan-a cells provided by D. Bennett, St. George's Hospital, University of London (Johnson C P, et al., PLoS One. 12(6):1-17 (2017)), were cultured in RPMI supplemented with 200 nM TPA unless otherwise noted. HEK293T (from ATCC, Manassas, Va.) cells were cultured in DMEM-Q and UVM cells were cultured in RPMI. All cells tested negative for mycoplasma. Cell growth assays and YM dose response curves were assayed using CellTiter-glo 2.0 (Promega, Madison, Wis.) at given time points or after five days of incubation with YM and readout on a Glomax Luminometer (Promega, Madison, Wis.). IC50 values were calculated using Prism 7.0 software. Growth assays were compared to day 1 readings and dose response curves were compared to vehicle. Data shown is representative of at least three independent experiments with at least three technical replicates. Dose-response curves and growth assays were analyzed using GraphPad Prism 7.0 software.

[2] = tested on: GNAQ^Q209L-expressing melan-a cells; assay: TPA-independent cell growth, CellTiter-glo 2.0; assay type: cell-based, mouse; details: 5 days
Protocol: as §1, §2, §3

[3] = tested on: A375 cells (BRAF^V600E cutaneous melanoma); assay: Cell proliferation dose response, CellTiter-glo 2.0; assay type: cell-based, human; details: 5 days
Protocol: as §2, §3

A549 cells (KRAS^G12S) = assay: as above; assay type: cell-based, human; details: 5 days
Protocol: as §2, §3

Mel202 cells = assay: as above; assay type: cell-based, human; details: 5 days, approximate
Protocol: as §2, §3

Mel270 cells = assay: as above; assay type: cell-based, human; details: 5 days, approximate
Protocol: as §2, §3

Mel285 cells = assay: as above; assay type: cell-based, human; details: 5 days, UVM line lacking GNAQ/11 mutations
Protocol: as §2, §3

Mel290 cells = assay: as above; assay type: cell-based, human; details: 5 days, UVM line lacking GNAQ/11 mutations
Protocol: as §2, §3

OMM1.3 cells = assay: as above; assay type: cell-based, human; details: 5 days, approximate
Protocol: as §2, §3

[4] = tested on: SK-MEL-2 cells (NRAS^Q61R); assay: as above; assay type: cell-based, human; details: 5 days
Protocol: as §2, §3

[5] = tested on: BRAF-mutant A375 cutaneous melanoma cells; assay: Colony formation assay; assay type: cell-based, human; details: 1000 cells per well, until colonies visible in vehicle plates
Protocol: (§4) To evaluate the effect of YM-254890 and trametinib in vitro, colony formation assays were performed. 1000 cells per well of the following cell lines were plated: (1) BRAF-mutant A375 cutaneous melanoma cells, (2) Gq-mutant Mel202 cells, and (3) Gq-mutant OMIM1.3 uveal melanoma cells. The cells were then treated with a negative vehicle control, YM-254890, trametinib, or both. Cells were allowed to grow until visible colonies formed in the vehicle-treated plates.

Gq-mutant Mel202 cells = assay: Colony formation assay; assay type: cell-based, human; details: 1000 cells per well, until colonies visible in vehicle plates
Protocol: as §4

[6] = tested on: Gq-mutant OMIM1.3 uveal melanoma cells; assay: Colony formation assay; assay type: cell-based, human; details: 1000 cells per well, until colonies visible in vehicle plates
Protocol: as §4

[7] = tested on: human Mel202 uveal melanoma xenografts; assay: In vivo anti-tumor activity, xenografts in SCID mice; details: MEK162 10 mg/kg P.O. b.i.d.; YM-254890 2.5 mg/kg i.p. q.d.; over 20 days; single agents vs vehicle, combination vs vehicle and single agents
Protocol: To evaluate the effect of YM-254890 and binimetinib (MEK162) in vivo, Mel202 uveal melanoma xenografts were established in SCID mice, and the mice were treated with vehicle only, 10 mg/kg MEK162 (P.O., b.i.d.), YM-254890 (2.5 mg/kg i.p., q.d.) or a combination of MEK162 and YM-254890. Tumor volumes were measured over 20 days.

**Q.** Which “YM-mediated growth inhibition in the presence of TPA” value ([1]; with TPA) does the source give for YM-254890 here?
**A.** The value was “rescued”.

**Q.** What about the “sensitivity of TPA-independent cell growth to YM” value ([1]; without TPA) of the same substance?
**A.** The value was “sub-nanomolar sensitivity”.

**Q.** And the “YM-mediated growth inhibition in the presence of TPA” value ([2]; with TPA)?
**A.** The value was “rescued”.

**Q.** What about the “sensitivity of TPA-independent cell growth to YM” value ([2]; without TPA) of the same substance?
**A.** The value was “modestly less sensitive”.

**Q.** And the “sensitivity of proliferation to YM” value [3]?
**A.** Its value is “resistant”.

**Q.** And the “sensitivity of proliferation to YM” value (A549 cells (KRAS^G12S))?
**A.** Its value is “resistant”.

**Q.** What about the IC50 (Mel202 cells) of the same substance?
**A.** Its IC50 is ~100 nM.

**Q.** And the IC50 (Mel270 cells)?
**A.** The IC50 was ~100 nM.

**Q.** And the “sensitivity of proliferation to YM” value (Mel285 cells)?
**A.** Its value is “resistant”.

**Q.** What about the “sensitivity of proliferation to YM” value (Mel290 cells) of the same substance?
**A.** Its value is “resistant”.

**Q.** What about the IC50 (OMM1.3 cells) of the same substance?
**A.** The IC50 was ~100 nM.

**Q.** What about the “sensitivity of proliferation to YM” value [4] of the same substance?
**A.** The value was “resistant”.

**Q.** What about the colony formation [5] of the same substance?
**A.** The colony formation was “resistant”.

**Q.** And the colony formation (Gq-mutant Mel202 cells)?
**A.** The colony formation was “moderate sensitivity”.

**Q.** What about the colony formation [6] of the same substance?
**A.** The colony formation was “moderate sensitivity”.

**Q.** And the tumor volume [7]?
**A.** The tumor volume was “moderate reduction”.
